In US11945808B2, “Substituted cyclohexyl compounds as NOP inhibitors” (Dart NeuroScience, LLC, priority 2018, dated 2024):

Target: human opioid NOP (Homo sapiens, UniProt P41146)
Test: Cell-based NOP cAMP assay (LANCE cAMP, TR-FRET)
Conditions: antagonism of nociceptin in cAMP assay, cells expressing human NOP, forskolin-stimulated; values given as ranges; read-out: NOP (pIC50) (converted)
Description: Formula (I) compounds were tested for antagonism of the nociceptin receptor (NOP) in a cell-based cAMP assay, using the LANCE cAMP Detection Kit, Perkin Elmer (Waltham, MA). This assay (LANCE cAMP) is a homogeneous, time-resolved fluorescence resonance energy transfer (TR-FRET) immunoassay designed to measure cAMP produced upon modulation of adenylyl cyclase activity by G protein-coupled receptors (GPCRs).
Cells expressing human opioid NOP (ValiScreen cell line, cat #ES-230-C Perkin Elmer (Waltham, MA) were dispensed in simulation buffer (5 mM Hepes, 0.1% BSA, 0.5 mM IBMX in Hanks Buffered Saline Solution) at 2.5 μL cells per well (400 cells/well) into a 1536 white TC-treated assay plate. Compound was then added and plates were incubated for 15 minutes at room temperature. To each well was added 2.5 μL of a solution containing forskolin (3 μM final) and nociceptin peptide ([…] final) diluted in stimulation buffer, and the plates were incubated for 30 minutes at room temperature. To each well was dispensed 5 μL of LANCE Ultra detection (1:300 dilution of anti-cAMP ULight with a 1:100 dilution of Eu-cAMP tracer diluted in cAMP Detection Buffer) reagent, and the plates were incubated for 1 hr at room temperature. The plate was then read on the ViewLux microplate reader (Perkin Elmer, Waltham, MA) using the LANCE 1536 protocol with 60 second exposure times and 50 μs delay. This protocol has an excitation wavelength of 340 nm (DUG11 filter) and emission wavelengths of 615 nm (Eu-Donor) and 665 nm (Alexa 647 cAMP antibody acceptor).
Data was analyzed, normalized, and visualized using ACAS (John McNeil & Co.). Efficacy was calculated using activity of the vehicle (DMSO) as 0% efficacy and the activity of the corresponding reference positive control (SCH 221510, Tocris Bioscience (Pittsburgh, PA), Catalog number 3240) as 100% efficacy. Activity was calculated as the ratio of donor and acceptor emissions. All curve fits and IC50 determinations were performed using a non-linear regression model. The IC50 value was measured as the concentration at which half-maximal response was calculated.

Sequence of human opioid NOP (P41146 whole entry): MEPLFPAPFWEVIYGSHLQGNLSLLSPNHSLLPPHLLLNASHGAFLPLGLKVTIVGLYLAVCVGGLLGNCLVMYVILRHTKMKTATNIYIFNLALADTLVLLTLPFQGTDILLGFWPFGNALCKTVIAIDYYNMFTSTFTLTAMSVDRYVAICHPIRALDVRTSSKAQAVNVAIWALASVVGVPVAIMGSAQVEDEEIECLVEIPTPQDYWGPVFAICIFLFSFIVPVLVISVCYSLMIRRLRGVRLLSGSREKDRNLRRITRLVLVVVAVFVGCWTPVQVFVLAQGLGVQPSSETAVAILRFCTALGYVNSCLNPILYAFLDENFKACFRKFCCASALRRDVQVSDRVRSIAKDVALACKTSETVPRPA

Row | SMILES | IC50 [nM]
1 | Cc1cnccc1C1CCC(CCNC2(C(N)=O)CCCC2)CC1 (stereo not shown) [Example 123, 1-({2-[4-(3-Methylpyridin-4-yl)cyclohexyl]ethyl}amino)cyclopentane-1-carboxamide] | > 1000
2 | COCC1(NCCC2CCC(c3ncccc3Cl)CC2)CCOCC1 (stereo not shown) [Example 146, N-{2-[4-(3-Chloropyridin-2-yl)cyclohexyl]ethyl}-4-(methoxymethyl)oxan-4-amine] | > 1000
3 | Cc1ccncc1C1CCC(CCNC2(C(N)=O)CCCC2)CC1 (stereo not shown) [Example 118, 1-({2-[4-(4-Methylpyridin-3-yl)cyclohexyl]ethyl}amino)cyclopentane-1-carboxamide] | > 1000
4 | Cc1cnccc1C1CCC(CCNC2(C)CCOCC2)CC1 (stereo not shown) [Example 139, 4-Methyl-N-{2-[4-(3-methylpyridin-4-yl)cyclohexyl]ethyl}oxan-4-amine] | > 1000
5 | CNC(=O)C1(NCC[C@H]2CC[C@H](c3ncc(F)cc3C(F)(F)F)CC2)CCOCC1 [Example 51, 4-((2-((trans)-4-(5-fluoro-3-(trifluoromethyl)pyridin-2-yl)cyclohexyl)ethyl)amino)-N-methyltetrahydro-2H-pyran-4-carboxamide] | > 1000
6 | NC(=O)C1(NCCC2CCC(c3cccc(F)c3Cl)CC2)CCCC1 (stereo not shown) [Example 114, 1-({2-[4-(2-Chloro-3-fluorophenyl)cyclohexyl]ethyl}amino)cyclopentane-1-carboxamide] | > 1000
7 | Cc1c(F)c(F)ccc1[C@H]1CC[C@H](CCNC2(C(N)=O)CCOCC2)CC1 [Example 49, 4-((2-((trans)-4-(3,4-difluoro-2-methylphenyl)cyclohexyl)ethyl)amino)tetrahydro-2H-pyran-4-carboxamide] | 100 to 1000
8 | Cc1ccncc1C1CCC(CCNC2(C)CCCC2)CC1 (stereo not shown) [Example 111, 1-Methyl-N-{2-[4-(4-methylpyridin-3-yl)cyclohexyl]ethyl}cyclopentan-1-amine] | > 1000
9 | CNC(=O)C1(NCC[C@H]2CC[C@@H](c3ncc(F)cc3C(F)(F)F)CC2)CCOCC1 [Example 50, 4-((2-((cis)-4-(5-fluoro-3-(trifluoromethyl)pyridin-2-yl)cyclohexyl)ethyl)amino)-N-methyltetrahydro-2H-pyran-4-carboxamide] | > 1000
10 | Cc1cnccc1C1CCC(CCNC2(C)CCCC2)CC1 (stereo not shown) [Example 121, 1-Methyl-N-{2-[4-(3-methylpyridin-4-yl)cyclohexyl]ethyl}cyclopentan-1-amine] | > 1000
11 | NC(=O)C1(NCCC2CCC(c3ncccc3Cl)CC2)CCCC1 (stereo not shown) [Example 116, 1-({2-[4-(3-Chloropyridin-2-yl)cyclohexyl]ethyl}amino)cyclopentane-1-carboxamide] | > 1000
12 | Cc1cccnc1C1CCC(CCNC2(C(N)=O)CCCC2)CC1 (stereo not shown) [Example 117, 1-({2-[4-(3-Methylpyridin-2-yl)cyclohexyl]ethyl}amino)cyclopentane-1-carboxamide] | > 1000
13 | CC1(NCCC2CCC(c3cccc(F)c3Cl)CC2)CCCC1 (stereo not shown) [Example 106, N-{2-[4-(2-Chloro-3-fluorophenyl)cyclohexyl]ethyl}-1-methylcyclopentan-1-amine] | > 1000

Now from value to molecule:

Row | IC50 [nM] | SMILES
14 | 1 to 10 | Clc1cccc(Cl)c1C1CCC(CCNC2CCOCC2)CC1 (single isomer, unassigned) [Example 8, N-(2-((cis)-4-(2,6-dichlorophenyl)cyclohexyl)ethyl)tetrahydro-2H-pyran-4-amine]
15 | > 1000 | CC(=O)N1CCC(NCCC2CCC(c3ncc(F)cc3Cl)CC2)CC1 (stereo not shown) [Example 172, 1-[4-({2-[4-(3-Chloro-5-fluoropyridin-2-yl)cyclohexyl]ethyl}amino)piperidin-1-yl]ethan-1-one]
16 | > 1000 | CC(=O)N1CCC(NCCC2CCC(c3cnccc3C)CC2)CC1 (stereo not shown) [Example 175, 1-[4-({2-[4-(4-Methylpyridin-3-yl)cyclohexyl]ethyl}amino)piperidin-1-yl]ethan-1-one]
17 | > 1000 | CC(=O)N1CCC(NCCC2CCC(c3cccc(F)c3Cl)CC2)CC1 (stereo not shown) [Example 171, 1-[4-({2-[4-(2-Chloro-3-fluorophenyl)cyclohexyl]ethyl}amino)piperidin-1-yl]ethan-1-one]
18 | > 1000 | Cc1cnccc1C1CCC(CCNC2CCN(C)CC2)CC1 (stereo not shown) [Example 187, 1-Methyl-N-{2-[4-(3-methylpyridin-4-yl)cyclohexyl]ethyl}piperidin-4-amine]
19 | > 1000 | Cc1cccnc1C1CCC(CCNC2CCN(C)CC2)CC1 (stereo not shown) [Example 182, 1-Methyl-N-{2-[4-(3-methylpyridin-2-yl)cyclohexyl]ethyl}piperidin-4-amine]
20 | > 1000 | Cc1nccnc1[C@H]1CC[C@H](CCNC2CCOCC2)CC1 [Example 88, N-(2-((trans)-4-(3-methylpyrazin-2-yl)cyclohexyl)ethyl)tetrahydro-2H-pyran-4-amine]
21 | > 1000 | CN1CCC(NCCC2CCC(c3ncccc3Cl)CC2)CC1 (stereo not shown) [Example 181, N-{2-[4-(3-Chloropyridin-2-yl)cyclohexyl]ethyl}-1-methylpiperidin-4-amine]
22 | < 1 | Fc1ccc([C@H]2CC[C@@H](CCNC3CCOCC3F)CC2)c(Cl)c1 (single isomer, unassigned) [Example 57, N-(2-((cis)-4-(2-chloro-4-fluorophenyl)cyclohexyl)ethyl)-3-fluorotetrahydro-2H-pyran-4-amine]
23 | > 1000 | CC(=O)N1CCC(NCCC2CCC(c3ncccc3Cl)CC2)CC1 (stereo not shown) [Example 173, 1-[4-({2-[4-(3-Chloropyridin-2-yl)cyclohexyl]ethyl}amino)piperidin-1-yl]ethan-1-one]
24 | > 1000 | Fc1cnc([C@H]2CC[C@H](CCNC3CCOCC3)CC2)nc1 [Example 12, N-(2-((trans)-4-(5-fluoropyrimidin-2-yl)cyclohexyl)ethyl)tetrahydro-2H-pyran-4-amine]
25 | > 1000 | CC(=O)N1CCC(NCCC2CCC(c3cc(F)ccc3Cl)CC2)CC1 (stereo not shown) [Example 178, 1-[4-({2-[4-(2-Chloro-5-fluorophenyl)cyclohexyl]ethyl}amino)piperidin-1-yl]ethan-1-one]
26 | > 1000 | CN1CCC(NCCC2CCC(c3cccc(F)c3Cl)CC2)CC1 (stereo not shown) [Example 179, N-{2-[4-(2-Chloro-3-fluorophenyl)cyclohexyl]ethyl}-1-methylpiperidin-4-amine]
27 | 1 to 10 | O=C1CC(NCC[C@H]2CC[C@H](c3ccc(F)cc3Cl)CC2)CCN1 (mixture of isomers) [Example 163, Racemic-4-({2-[(trans)-4-(2-Chloro-4-fluorophenyl)cyclohexyl]ethyl}amino)piperidin-2-one]
28 | > 1000 | CC(=O)N1CCC(NCCC2CCC(c3ncccc3C)CC2)CC1 (stereo not shown) [Example 174, 1-[4-({2-[4-(3-Methylpyridin-2-yl)cyclohexyl]ethyl}amino)piperidin-1-yl]ethan-1-one]
